Test results reported in ChEMBL document CHEMBL1138357 (J Med Chem, 2007).
Active and inactive are the calls of the source. No cut-off for these calls is given here.

Legend:
[1] = molecular target: T1, Melatonin receptor type 1B (Homo sapiens, UniProt P49286); experiment: Displacement of 2-[125I]iodomelatonin from human cloned MT2 receptor expressed in […] NIH3T3 cells; type: cell-based
T1 sequence (P49286 whole entry): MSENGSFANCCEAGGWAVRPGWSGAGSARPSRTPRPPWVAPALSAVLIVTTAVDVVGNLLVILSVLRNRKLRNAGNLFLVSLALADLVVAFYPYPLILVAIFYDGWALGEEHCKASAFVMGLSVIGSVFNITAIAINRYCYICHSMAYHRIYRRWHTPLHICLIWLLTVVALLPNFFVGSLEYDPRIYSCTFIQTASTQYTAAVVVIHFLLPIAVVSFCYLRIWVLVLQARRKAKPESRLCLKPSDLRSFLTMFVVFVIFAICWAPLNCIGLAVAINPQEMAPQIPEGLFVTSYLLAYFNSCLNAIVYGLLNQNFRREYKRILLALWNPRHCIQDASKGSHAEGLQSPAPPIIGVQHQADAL

[2] = molecular target: Melatonin receptor type 1A (Homo sapiens, UniProt P48039); experiment: Displacement of 2-[125I]iodomelatonin from human cloned MT1 receptor expressed in […] NIH3T3 cells; type: cell-based
Rattus norvegicus [3] = experiment: Sleep promoting activity in rat assessed as increase of paradoxical sleep latency at 40 mg/kg, sc; type: functional, organism-based; design: dose 40 mg/kg
Rattus norvegicus [4] = experiment: Sleep promoting activity in rat assessed as decrease in latency at 40 mg/kg, sc; type: functional, organism-based; design: dose 40 mg/kg
Rattus norvegicus [5] = species: Rattus norvegicus; experiment: Anxiolytic activity in Sprague-Dawley rat by elevated plus maze test; type: functional, organism-based
Rattus norvegicus [6] = experiment: Sleep promoting activity in rat assessed as increase in duration of slow wave sleep at 40 mg/kg, sc; type: functional, organism-based; design: dose 40 mg/kg

Melatonin receptor type 1A, sequence (P48039 whole entry): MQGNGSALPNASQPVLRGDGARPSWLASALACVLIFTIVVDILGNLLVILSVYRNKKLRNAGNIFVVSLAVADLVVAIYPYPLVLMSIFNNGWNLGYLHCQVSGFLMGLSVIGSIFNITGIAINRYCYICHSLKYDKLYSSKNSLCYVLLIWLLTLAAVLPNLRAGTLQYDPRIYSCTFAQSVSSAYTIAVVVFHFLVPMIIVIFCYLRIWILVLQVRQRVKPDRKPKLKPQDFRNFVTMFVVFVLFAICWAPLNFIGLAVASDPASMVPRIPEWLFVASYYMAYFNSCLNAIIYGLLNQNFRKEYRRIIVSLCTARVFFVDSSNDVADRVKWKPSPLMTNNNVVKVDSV

Row | Compound | Ki [1] [nM] | Ki [2] [nM] | also measured
1 | COc1cccc(OCCNC(C)=O)c1 | 12.6 | 7.24 | –
2 | COc1cccc(NCCNC(C)=O)c1 | 7.41 | – | –
3 | COc1cccc(N(CCNC(C)=O)c2ccccc2)c1 | – | – | Activity (Rattus norvegicus [3]): Active; Activity (Rattus norvegicus [4]): Active; Activity (Rattus norvegicus [5]): Active; Activity (Rattus norvegicus [6]): Active
4 | COc1cccc(N(CCNC(=O)C2CCC2)c2ccccc2)c1 | – | 324 | –
